# “Also recorded” adds a separate entry of the source. Where two headings read alike, the source gives them in different places. Peptide text beside a SMILES is read from it.
# Tests used:
# [1] = target: T1, GST-ZZ122-175 domain (p62) (Homo sapiens, UniProt Q13501); assay: Isothermal titration calorimetry, GST-ZZ122-175 (Fig. 2e); type: binding
# T1 construct: GST-fused p62 (122–175) wild type and mutants (N132Q and N132D) were expressed in E. coli; made in house; host or cells: E. coli BL21 (DE3) RIL
# T1 sequence (Q13501 122-175): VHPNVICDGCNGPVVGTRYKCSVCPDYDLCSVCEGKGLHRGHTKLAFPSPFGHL
# Procedure: (§1) For isothermal titration calorimetry (ITC), GST-fused p62 (122–175) wild type and mutants (N132Q and N132D) were expressed in E. coli BL21 (DE3) RIL competent cells in Luria–Bertani media with 0.1 mM Isopropyl-β-D-thio-galactoside (IPTG) at 18 °C. Cells were collected and sonicated in a B buffer (50 mM Tris–HCl pH 7.5, 200 mM NaCl) containing 3 mM β-mercaptoethanol (β-ME). Cell lysates were centrifuged at 18,000 × g for 1 h to remove cell debris, and this supernatant was loaded onto Glutathione Sepharose™ 4 Fast Flow resin and washed with B buffer. GST-fused proteins were eluted with 20 mM glutathione in an elution buffer (100 mM Tris–HCl pH 7.5, 200 mM NaCl, and 3 mM β-ME). The eluted samples were dialyzed in a dialysis buffer (50 mM Tris–HCl pH 7.5, 50 mM NaCl, and 3 mM β-ME) with or without TEV protease. These samples were loaded onto anion exchange column (HiTrap Q HP, GE Healthcare) and unbounded samples were collected and loaded onto size exclusion chromatography (HiLoad ™ 25/600 Superdex™ 75 pg column, GE healthcare) with the B buffer containing 0.2 mM Tris(2-carboxyethyl)phosphine (TCEP).
# (§2) Purified proteins were concentrated to 0.05 mM. 4-mer peptides as injectant were resolved in B buffer to a final concentration of 1 mM. ITC measurement was performed at 25 °C on a Microcal Auto-ITC200.
# [2] = target: T2, N132Q mutant ZZ122-175 (p62) (Homo sapiens, UniProt Q13501, N132Q); assay: biochemical; type: binding
# T2 construct: GST-fused p62 (122–175) wild type and mutants (N132Q and N132D) were expressed in E. coli; GST (N); made in house; host or cells: E. coli BL21 (DE3) RIL
# T2 sequence (Q13501 122-175 N132Q): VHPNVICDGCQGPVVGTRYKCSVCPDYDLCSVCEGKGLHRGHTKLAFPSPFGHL
# [3] = target: T3, wild type ZZ122-175 (p62) (Homo sapiens, UniProt Q13501); assay: Isothermal titration calorimetry, wild type ZZ (Fig. 3b); conditions: ITC, wild type ZZ122-175, 25 °C; read-out: binding affinity (KD)
# T3 construct: GST-fused p62 (122–175) wild type and mutants (N132Q and N132D) were expressed in E. coli; GST (N); made in house; host or cells: E. coli BL21 (DE3) RIL
# T3 sequence (Q13501 122-175): as the sequence (Q13501 122-175) above
# [4] = target: T4, N132D mutant ZZ122-175 (p62) (Homo sapiens, UniProt Q13501, N132D); assay: Isothermal titration calorimetry, N132D ZZ; conditions: ITC, N132D ZZ122-175, 25 °C; read-out: binding affinity (KD)
# T4 construct: GST-fused p62 (122–175) wild type and mutants (N132Q and N132D) were expressed in E. coli; GST (N); made in house; host or cells: E. coli BL21 (DE3) RIL
# T4 sequence (Q13501 122-175 N132D): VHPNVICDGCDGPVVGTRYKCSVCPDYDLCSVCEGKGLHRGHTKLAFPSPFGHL
# [5] = system: HeLa cell extracts stimulated with MG132 plus TG; assay: Large-scale R-catcher pulldown coupled to silver staining and LC-MS/MS; set-up: species or system human; conditions: for presence in R-catcher working list: LC-MS/MS working list
# Procedure: For large-scale R-catcher pulldown assays, HeLa cells were treated with 5 µM MG132 and 100 nM thapsigargin for 24 h. Cells were lysed in hypotonic buffer and 10 mg total was incubated with 750 µl R-catcher-sepharose beads for 3 h at 4 °C after pre-clearing with D129A mutant R-catcher-sepharose beads for 3 h at 4 °C. After three washes with binding buffer, bound proteins were eluted with binding buffer containing 20 mM D-biotin. To remove R-catcher, the eluent was dialyzed using 20 kDa cut-off dialysis membrane in binding buffer containing 3.5 M MgCl2 overnight followed by another overnight dialysis in distilled-deionized water. The dialyzed eluent was lyophilized overnight and dried powder was dissolved in 100 µl LC/MS solubilizer for silver staining and mass spectrometry analysis.
# Protein samples solubilized in Invitrosol LC/MS solubilizer (Invitrogen) as following by manufacturer protocol. For removal of incompatible buffer components, protein samples filtrate with 10 K MW ultrafilter for complete digestion. For preparing trypsinization of samples, the retentates were dissolved in 50 mM of ammonium bicarbonate (pH 8.0) untill it reach 1 μg/μL of final concentration. The samples treated with 10 mM DTT at 60 °C for 45 min. Following 20 mM IAA addition, the final mixture incubated in dark for 45 min at 25 °C. 1:50 ratio of Trypsin was added on mixture. The mixture incubated overnight at 37 °C. Final digested samples dried with speed-vacuum. Samples re-dissolved in 20 μL of water containing 0.1% formic acid for LC–MS/MS analysis.
# Peptides were analyzed using a LC–MS/MS system consisting of an Easy nLC 1000 (Thermo Fisher scientific) and an Orbitrap Fusion Lumos mass spectrometer (Thermo Fisher Scientific) equipped with a nano-electrospray source (EASY-Spray Sources, Thermo Fisher Scientific). Peptides were trapped 75 μm × 2 cm C18 pre-column (nanoViper, Acclaim PepMap100, Thermo Fisher Scientific) before being separated on an analytical C18 column (75 μm × 50 cm PepMap RSLC, Thermo Fisher Scientific) at a flow rate of 300 nL/min. The mobile phases A and B were composed of 0 and 100% acetonitrile containing 0.1% formic acid, respectively. The LC gradient began with 5% B and was ramped to 8% B for 1 min, 10% B for 16 min, to 40% B for 79 min, to 80% B for 1 min, and remained at 80% B over 8 min. Finally, it was ramped to 5% B for another 5 min. The column was re-equilibrated with 2% B for 10 min before the next run. The voltage applied to produce an electrospray was 1900 V. During the chromatographic separation, the Orbitrap Fusion Lumos was operated in data-dependent mode, automatically switching between MS1 and MS2. The MS data were acquired using the following parameters: Full-scan MS1 spectra (400–1600 m/z) were acquired in the Orbitrap for a maximum ion injection time of 100 ms at a resolution of 120,000 and an automatic gain control (AGC) target value of 4.0e5. MS2 spectra were acquired in the Orbitrap mass analyzer at resolution of 30,000 with high-energy collision dissociation (HCD) of 27% normalized collision energy and AGC target value of 5.0e4 with maximum ion injection time of 54 ms. Previously fragmented ions were excluded for 30 s.
# MS/MS spectra were analyzed using the following software analysis protocols with the Uniprot human DB (2019). The reversed sequences of all proteins were appended into the database for calculation of false discovery rate (FDR). ProLucid was used to identify the peptides, a precursor mass error of 5 ppm, and a fragment ion mass error of 200 ppm. Trypsin was selected as the enzyme, with one potential missed cleavage. Carbamidomethylation at cystein was chosen as static modifications. Oxidation at methionine was chosen as variable modification. The output data files were filtered and sorted to compose the protein list using the DTASelect (The Scripps Research Institute, USA) with two and more peptides assignments for a protein identification and a false positive rate less than 0.01. […]
# R-catcher [6] = assay: Small-scale R-catcher pulldown of known arginylated proteins; type: binding, human; conditions: for pulldown by R-catcher, overexpressed substrates: HEK293 cells, R-catcher on tactin beads, immunoblot
# Procedure: (§3) For small-scale R-catcher pull-down assays, 300 µg of purified R-catcher was conjugated with 120 µl of Strep-Tactin sepharose resin by incubating overnight at 4 °C. To test R-catcher’s ability to capture known arginylated proteins, such as R-BiP, R-PDI, R-nsP4 and R-RGS4, plasmids encoding Ub-X-(BiP, PDI and nsP4) or MX-RGS4 (X = Arg or Val) were transiently transfected into HEK293 cells. After 24 h, cells were treated with 10 µM MG132 and 100 nM thapsigargin for another 24 h. Cells were harvested and lysed in hypotonic buffer and 300 µg total protein was incubate with 25 µl R-catcher-sepharose resin in binding buffer (20 mM HEPES pH 7.9, 0.05% Tween 20, 10% glycerol, 0.2 M KCl, protease inhibitor and phosphatase inhibitor) for 3 h with gentle rotation at 4 °C. After three washes with binding buffer, bound proteins were dissociated with 2 × SDS sample buffer and boiling at 100 °C and subjected to immunoblotting using anti-myc or flag antibodies.
# R-catcher [7] = assay: R-catcher pulldown of putative arginylated ER proteins, HeLa; type: binding, human; conditions: 5 µM MG132 plus 100 nM TG, RA competition, Fig. 6a
# Procedure: as §3
# Plasmids encoding the proteins were transiently transfected to HeLa cells for 24 h and stimulated with 5 µM MG132 plus 100 nM TG for another 24 h. Cell lysates were incubated with R-catcher immobilized on tactin beads for 3 h. After wash, bound proteins were eluted with 2 × SDS sample buffer followed by boiling at 100 °C for 10 min and visualized by western blot analysis. b R-catcher pulldown assays to validate ATE1-dependent arginylation of […]1, PRDX4, FBLN1 and CLUS. Plasmids encoding […]1, PRDX4, FBLN1 and CLUS were transiently transfected into + / + and ATE1^−/− MEFs for 24 h and stimulated with 5 µM MG132 plus 100 nM TG for another 9 h. Cell lysates were subjected to R-catcher pulldown, and bound proteins were detected by western blot analysis. c R-catcher pull-down assays to evaluate if the arginylation of FBNL1, SERPINH1, CLUS and PRDX4 is induced in response to MG132 plus thapsigargin. d X-peptide pulldown assays to confirm no interaction of R-catcher with Nt-Ala19 of SERPINH1 peptides and Nt-Trp38 of PRDX4 peptides. X-peptides where X is A19 (SignalP predicted P1’ site), E20 (next possible P1’ site predicted by PrediSi) or R19 (Arginylated form of Glu) for SERPINH1 and W38 (SignalP predicted P1’ site), E39 (next possible P1’ site predicted by PrediSi) or R38 (Arginylated form) for PRDX4. Biotinylated X-peptides immobilized on streptavidin agarose beads were incubated with affinity-purified GST-ZZ ([…]). Bound GST-ZZ (N132D) was detected by immunoblotting. e Identification of arginylated sites employing mutational analysis. Predicted P1’ sites of SERPINH1, PRDX4, CLUS and FBLN1 were substituted to Gly, and the inhibitory effect of the mutation on binding with R-catcher was examined by performing R-catcher pulldown assays
# [8] = system: ZZ wild type, ZZ (N132D) and ZZ (N132Q); assay: Isothermal titration calorimetry, any ZZ domain (wild type, N132D, N132Q); type: binding, human; conditions: ITC, 25 °C
# Procedure: as §1, §2
compound,measurement,setting,value
CC[C@H](C)[C@H](NC(=O)[C@@H](N)CCCNC(=N)N)C(=O)N[C@@H](Cc1ccccc1)C(=O)N[C@@H](CO)C(=O)O [RIFS] (H-RIFS-OH),Kd,[1],4.39 ± 0.449 µM
same,Kd,[2],21.4 ± 9.51 µM
same,Kd,[3],6.9 µM
same,Kd,[4],2.85 µM
CC[C@H](C)[C@H](NC(=O)[C@@H](N)Cc1ccc(O)cc1)C(=O)N[C@@H](Cc1ccccc1)C(=O)N[C@@H](CO)C(=O)O [YIFS] (H-YIFS-OH),Kd,"[1]; ITC, (GST-)ZZ122-175 wild type, 25 °C, read-out: KD",16.1 µM
same,Kd,[3],20.7 µM
same,Kd,[4],107 µM
"BiP: ER chaperone BiP, arginylated (2nd Glu)",presence in R-catcher working list,[5],among the known arginylated proteins
same,"pulldown by R-catcher, overexpressed substrates",R-catcher [6]; Fig. 4d,could pulldown
same,"pulldown by R-catcher, endogenous","R-catcher [6]; HeLa, MG132 plus TG, Fig. 4e",could pulldown
ENPL: endoplasmin,"binding with R-catcher, Nt-Arg dependence",R-catcher [7],no significant binding affinity for R-catcher
FIFS [peptide],affinity for ZZ domains,[8],no affinity
FKBP10: FK506-binding protein 10,"binding with R-catcher, Nt-Arg dependence",R-catcher [7],Nt-Arg-dependent binding with R-catcher; also recorded: unusually high binding affinity for R-catcher
IIFS [peptide],affinity for ZZ domains,[8],no affinity
LIFS [peptide],affinity for ZZ domains,[8],no affinity
"PDI: protein disulfide isomerase, arginylated (2nd Asp)",presence in R-catcher working list,[5],not detected in our list
same,binding affinity for R-catcher,"R-catcher [6]; Fig. 4d, discussion",low binding affinity
same,"pulldown by R-catcher, overexpressed substrates",R-catcher [6]; Fig. 4d,could pulldown
R-PDI: arginylated PDI,"R-PDI binding to R-catcher, preliminary","R-catcher [6]; preliminary result, N-termini enhancing methods",detected R-PDI binding to R-catcher
"R-catcher: ZZ122-175^N132D tagged with twin strepII-His6 at the N-terminus, approximately 9 kDa protein",number of known and putative arginylated proteins captured (final working list),"[5]; HeLa, MG132 + TG",59 proteins
same,number of proteins in WT list,"[5]; no dipeptide, LC-MS/MS, Fig. 5c",83 proteins
same,number of proteins in AR list,[5]; with AR dipeptide competition,163 proteins
same,number of proteins in RA list,[5]; with RA dipeptide competition,42 proteins
TIFS [4-mer peptide],affinity for ZZ domains,[8],no affinity
